The source of these data is patent publication US20030229053A1, “Compounds and methods for the treatment or prevention of flavivirus infections” (Shire BioChem Inc., priority 2001, published 2003).

Chain of recombinant HCV NS5B (P26663 2420-3010 limits assumed): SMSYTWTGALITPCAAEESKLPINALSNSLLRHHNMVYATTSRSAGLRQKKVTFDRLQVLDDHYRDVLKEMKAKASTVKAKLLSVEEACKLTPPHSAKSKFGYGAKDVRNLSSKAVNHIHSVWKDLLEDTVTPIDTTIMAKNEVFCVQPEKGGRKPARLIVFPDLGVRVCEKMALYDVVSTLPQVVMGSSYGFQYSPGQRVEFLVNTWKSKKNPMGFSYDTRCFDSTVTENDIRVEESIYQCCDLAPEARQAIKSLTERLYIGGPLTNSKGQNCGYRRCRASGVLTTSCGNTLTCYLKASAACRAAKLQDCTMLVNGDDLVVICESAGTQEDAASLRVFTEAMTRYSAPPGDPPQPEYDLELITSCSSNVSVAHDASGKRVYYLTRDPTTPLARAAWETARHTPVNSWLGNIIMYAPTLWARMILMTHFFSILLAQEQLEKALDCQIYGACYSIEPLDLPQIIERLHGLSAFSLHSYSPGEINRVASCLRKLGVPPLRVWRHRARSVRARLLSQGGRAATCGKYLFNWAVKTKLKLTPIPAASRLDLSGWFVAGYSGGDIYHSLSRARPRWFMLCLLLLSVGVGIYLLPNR
Chain of HCV NS5B RNA-dependent RNA polymerase (P26663 2420-3010 limits assumed): as above

One experiment addresses HCV NS5B RNA-dependent RNA polymerase (Hepatitis C virus genotype 1b, UniProt P26663). In words: In vitro RNA-dependent RNA polymerase assay (Assay 1), polyA/oligo dT, TCA precipitation. It counts as biochemical. Conditions: polyA/oligo dT template/primer, 200 ng NS5B, 2 h at 22° C.; read-out: RNA pol Assay 1 IC50 (μm). In short, it runs like this:
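Purified NS5B (200 ng) on annealed polyA/oligo dT15 in 20 mM Tris-HCl pH 7.5, 50 mM NaCl, 5 mM MgCl2, 1 mM DTT, 15 µM cold UTP plus [32P]-UTP, 2 h at 22°C. Product TCA-precipitated, filtered onto glass-fibre and counted by liquid scintillation.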
Take `C=C(Br)CN(C(=O)c1ccc(Cl)cc1Cl)C(Cc1ccccc1)C(=O)O` (centres unmarked) [compound #116, 2-[(2-Bromo-allyl)-(2,4-dichloro-benzoyl)-amino]-3-phenyl-propionic acid]: the IC50 – broadly, the concentration at which inhibition is half-maximal – lay in the range of 5 to 20 µM.

As for `O=C(O)[C@H](Cc1ccccc1)N(Cc1ccc(-c2ccccc2C(F)(F)F)o1)C(=O)c1ccc(Cl)cc1Cl` [compound #120, (2s)-2-{(2,4-Dichloro-benzoyl)-[5-(2-trifluoromethyl-phenyl)-furan-2-ylmethyl]-amino}-3-phenyl-propionic acid], the IC50 was under 5 µM.

Consider `CCOC(=O)c1ccccc1-c1ccc(CN(C(=O)c2ccc(Cl)cc2Cl)[C@@H](Cc2ccccc2)C(=O)O)s1` [compound #121, (2s)-2-(5-{[(1s-1-Carboxy-2-phenyl-ethyl)-(2,4-dichloro-benzoyl)-amino]-methyl}-thiophen-2-yl)-benzoic acid ethyl ester], for which the IC50 was under 5 µM.

On to `CCOC(=O)c1cccc(-c2ccc(CN(C(=O)c3ccc(Cl)cc3Cl)[C@@H](Cc3ccccc3)C(=O)O)s2)c1` [compound #122, 3-(5-{[(1s-1-Carboxy-2-phenyl-ethyl)-(2,4-dichloro-benzoyl)-amino]-methyl}-thiophen-2-yl)-benzoic acid ethyl ester], for which the IC50 is under 5 µM.

Take `O=C(O)[C@H](Cc1ccccc1)N(Cc1ccc(-c2cccc(Cl)c2)o1)C(=O)c1ccc(Cl)cc1Cl` [compound #123, (2s)-2-[[5-(3-Chloro-phenyl)-furan-2-ylmethyl]-(2,4-dichloro-benzoyl)-amino]-3-phenyl-propionic acid]: the IC50 was under 5 µM.

On to `O=C(O)[C@H](Cc1ccccc1)N(Cc1sc(Br)cc1Br)C(=O)c1ccc(Cl)cc1I` [compound #124, (2s)-2-[(4-Chloro-2-iodo-benzoyl)-(3,5-dibromo-thiophen-2-ylmethyl)-amino]-3-phenyl-propionic acid], for which the IC50 is under 5 µM.

In the case of `O=C(O)c1cccc(-c2ccc(CN(C(=O)c3ccc(Cl)cc3Cl)[C@@H](Cc3ccccc3)C(=O)O)s2)c1` [compound #125, (2s)-3-(5-{[(1-Carboxy-2-phenyl-ethyl)-(2,4-dichloro-benzoyl)-amino]-methyl}-thiophen-2-yl)-benzoic acid], the IC50 is under 5 µM.

As to `O=C(O)[C@H](Cc1ccccc1)N(Cc1ccc(-c2ccc(Cl)s2)o1)C(=O)c1ccc(Cl)cc1Cl` [compound #126, (2s)-2-[[5-(5-Chloro-thiophen-2-yl)-furan-2-ylmethyl]-(2,4-dichloro-benzoyl)-amino]-3-phenyl-propionic acid], the 50% inhibitory concentration (IC50) is under 5 µM.

Turning to `O=C(O)[C@H](Cc1ccccc1)N(Cc1ccc(-c2cccs2)s1)C(=O)c1ccc(Cl)cc1Cl` [compound #127, (2s)-2-[[2,2′]Bithiophenyl-5-ylmethyl-(2,4-dichloro-benzoyl)-amino]-3-phenyl-propionic acid], the IC50 was under 5 µM.

As for `O=C(O)[C@H](Cc1ccccc1)N(Cc1ccc(-c2ccc(Cl)s2)s1)C(=O)c1ccc(Cl)cc1Cl` [compound #128, (2s)-2-[(5′-Chloro-[2,2′]bithiophenyl-5-ylmethyl)-(2,4-dichloro-benzoyl)-amino]-3-phenyl-propionic acid], the IC50 is under 5 µM.

As to `O=C(O)[C@H](Cc1ccccc1)N(Cc1cc(-c2cc(F)cc(F)c2)cs1)C(=O)c1ccc(Cl)cc1Cl` [compound #129, (2s)-2-{(2,4-Dichloro-benzoyl)-[4-(3,5-difluoro-phenyl)-thiophen-2-ylmethyl]-amino}-3-phenyl-propionic acid], the IC50 was under 5 µM.

Regarding `O=C(O)[C@H](Cc1ccccc1)N(Cc1cc(-c2cccc(F)c2)cs1)C(=O)c1ccc(Cl)cc1Cl` [compound #130, (2s)-2-{(2,4-Dichloro-benzoyl)-[4-(3-fluoro-phenyl)-thiophen-2-ylmethyl]-amino}-3-phenyl-propionic acid], the half-maximal inhibitory concentration (IC50) was under 5 µM.

Turning to `O=C(O)[C@H](Cc1ccccc1)N(Cc1ccc(-c2cccc(C(F)(F)F)c2)o1)C(=O)c1ccc(Cl)cc1I` [compound #131, (2s)-2-{(4-Chloro-2-iodo-benzoyl)-[5-(3-trifluoromethyl-phenyl)-furan-2-ylmethyl]-amino}-3-phenyl-propionic acid], the IC50 is under 5 µM.

Regarding `O=C(O)[C@H](Cc1ccccc1)N(Cc1cc(-c2ccc(Cl)s2)cs1)C(=O)c1ccc(Cl)cc1Cl` [compound #133, (2s)-2-[(5-Chloro-[2,3′]bithiophenyl-5′-ylmethyl)-(2,4-dichloro-benzoyl)-amino]-3-phenyl-propionic acid], the IC50 is under 5 µM.

Regarding `COc1ccc(-c2ccc(CN(C(=O)c3ccc(Cl)cc3Cl)[C@@H](Cc3ccccc3)C(=O)O)o2)cc1` [compound #134, (2s)-2-{(2,4-Dichloro-benzoyl)-[5-(4-methoxy-phenyl)-furan-2-ylmethyl]-amino}-3-phenyl-propionic acid], the half-inhibitory concentration (IC50) was under 5 µM.

`COc1ccc(-c2ccc(CN(C(=O)c3ccc(Cl)cc3Cl)[C@@H](Cc3ccccc3)C(=O)O)s2)cc1` [compound #135, (2s)-2-{(2,4-Dichloro-benzoyl)-[5-(4-methoxy-phenyl)-thiophen-2-ylmethyl]-amino}-3-phenyl-propionic acid]: the IC50 was under 5 µM.

As to `COc1ccc(-c2csc(CN(C(=O)c3ccc(Cl)cc3Cl)[C@@H](Cc3ccccc3)C(=O)O)c2)cc1` [compound #136, (2s)-2-{(2,4-Dichloro-benzoyl)-[4-(4-methoxy-phenyl)-thiophen-2-ylmethyl]-amino}-3-phenyl-propionic acid], the half-maximal inhibitory concentration (IC50) was under 5 µM.

As to `O=C(O)[C@H](Cc1ccccc1)N(Cc1ccc(-c2ccncc2)o1)C(=O)c1ccc(Cl)cc1Cl` [compound #137, (2s)-2-[(2,4-Dichloro-benzoyl)-(5-pyridin-4-yl-furan-2-ylmethyl)-amino]-3-phenyl-propionic acid], the IC50 is under 5 µM.

With `O=C(O)[C@H](Cc1ccccc1)N(Cc1ccc(-c2ccncc2)s1)C(=O)c1ccc(Cl)cc1Cl` [compound #138, (2s)-2-[(2,4-Dichloro-benzoyl)-(5-pyridin-4-yl-thiophen-2-ylmethyl)-amino]-3-phenyl-propionic acid], the concentration for half-maximal inhibition (IC50) was under 5 µM.

As to `O=C(O)[C@H](Cc1ccccc1)N(Cc1cc(-c2ccncc2)cs1)C(=O)c1ccc(Cl)cc1Cl` [compound #139, (2s)-2-[(2,4-Dichloro-benzoyl)-(4-pyridin-4-yl-thiophen-2-ylmethyl)-amino]-3-phenyl-propionic acid], the half-inhibitory concentration (IC50) is under 5 µM.

Another experiment has as its target recombinant HCV NS5B (Hepatitis C virus genotype 1b, UniProt P26663). Description: biochemical. Conditions: flashplate, polyrA/biotinylated-oligo dT, 100 nM NS5B, 2 hrs at room temperature; read-out: RNA pol Assay 2 IC50 (μm). Here is the method: In vitro HCV RdRp Flashplate Scintillation Proximity Assay (Strep-Flash Assay) Used to Evaluate Analogues:
In brief, a 400 ng/μl polyrA solution (Amersham Pharmacia Biotech) was mixed volume-to-volume with 5′ biotin-oligo dT12 at 20 pmol/μl. The template and primers were denatured at 95 C for 5 minutes then incubated at 37 C for 10 minutes. Annealed template-primers were subsequently diluted in a Tris-HCl containing buffer and allowed to bind to streptavidin-coated flashplates overnight.
On to `CC(c1cccc(C#N)c1)N(C(=O)c1ccc(Cl)cc1Cl)[C@@H](Cc1ccccc1)C(=O)O` (stereo in doubt) [Compound #205, 2-[[1-(3-CYANO-PHENYL)-ETHYL]-(2,4-DICHLORO-BENZOYL)-AMINO]-3PHENYL-PROPIONIC ACID], for which the IC50 fell in the range of 5 to 20 µM.

For the molecule `O=C(O)C(Cc1ccccc1)N(Cc1cc(Cl)cc(Cl)c1)C(=O)c1ccc(Cl)cc1Cl` (stereo in doubt) [compound #142, (2s)-2-[(2,4-Dichloro-benzoyl)-(3,5-dichloro-benzyl)-amino]-3-phenyl-propionic acid], the IC50 was under 5 µM.

Regarding `O=C(O)C(Cc1ccccc1)N(Cc1ccsc1)C(=O)c1ccc(Cl)cc1Cl` (stereo in doubt) [compound #143, (2s)-2-[(2,4-Dichloro-benzoyl)-thiophen-3-ylmethyl-amino]-3-phenyl-propionic acid], the IC50 is under 5 µM.
